Data published in US20070117864A1, “Composition for preventing and treating hepatoma” (Tokyo University of Agr. & Tech. TLO Co., Ltd., priority 2003, published 2007).
Marks after values point to notes of the source that are not given here.

Assay: food intake, body weight gain and liver weight in hepatoma-bearing rats
Type: in vivo, rat
Settings: for Body weight gain: mean ± SEM of 11 rats
Method: Male Donryu rats of four weeks old were purchased from NRC Haruna, Gumma, Japan, and were preliminarily fed for 6 days in quintuple cages in a room with a controlled environment with light period of 8:00 to 20:00, room temperature of 22±1° C., and relative humidity of 60±5%. For the first 3 days, the animals were fed ad libitum with a stock pellet diet (CE-2; CLEA Japan, Tokyo), and for the next 3 days, they were fed a basal diet containing 20% milk casein (20C) (Table 1) ad libitum together with tap water in a glass container. Following the completion of this preparatory raising, the rats were divided into three groups (11 animals per group) with equal average body weights of the respective groups were equal, and 1.0×10^7 of AH109A cells suspended in PBS (−) were transplanted in the back of all the rats. From the time immediately after transplantation, in the respective experimental groups, the animals were fed the experimental diets shown in Table 2. During the experimental period, the body weight, food intake and solid tumor size (sum of length, width and height) were measured everyday. On the day that the animals were killed, animals were deprived of experimental diets at 9:00, but freely given water until they were killed 4 hours later. Blood was collected from carotid, and the liver and solid tumors were excised. The collected blood was allowed to stand for approximately 2 hours at room temperature, and then centrifuged for 10 minutes at 3000 rpm (1750×g), 4° C., to obtain serum. This blood serum was frozen and stored at −20° C. The livers and solid tumors were washed with physiological saline, blotted on filter paper, and weighed. Furthermore, feces from the 19th to 21st days after transplantation were collected, and these feces were frozen and stored at −20° C. for the measurement of the amounts of steroids excreted from the body.

For `O=C1OCC(Cc2cccc(O)c2)C1Cc1cccc(O)c1` (stereo not drawn) [Enterolactone, enterolactone], the body weight (100 ppm ENL ingestion group versus control) was “significant increase”, the Body weight gain (diet 10 ppm) was 158 ± 8^a g/21 days and the Body weight gain (diet 100 ppm) was 171 ± 4^b g/21 days.
